Laboratory results taken from patent US20240002313A1, “[11C]-LABELED ACYCLIC RETINOID, CENTRAL NERVOUS SYSTEM ACTIVATOR, AND PRODUCTION METHODS FOR SAME” (NATIONAL CENTER FOR GERIATRICS AND GERONTOLOGY, priority 2020, published 2024).
Each block holds one compound with its values, some of them ahead of it.

Legend:
[1] = test system: cerebral cortex-striatal tissue sections; assay: Inhibitory effect on thrombin toxicity in cultured brain slices; assay type: cell-based, Wistar/ST rat; settings: 10, 20, 30 μM; thrombin 100 U/ml, 72 hours
Experimental: (§1) Thrombin is known to induce cerebral cortex cell death and striatal tissue atrophy. Therefore, an experiment for evaluating thrombin toxicity was performed. In other words, a coronal section having a thickness of 300 μm was prepared from a brain of a Wistar/ST rat aged 2 to 3 days after birth, a fan-shaped tissue piece including a cerebral cortex and striatum was cut out, and then left to stand on a porous membrane (Millicell-CM, Millipore Corporation), and culture was maintained at a gas-liquid interface under a conditions of 34° C./5% CO2 (medium composition: 50% minimal essential medium, 25% Hanks' balanced salt solution, 25% horse serum). […] PI fluorescence images were acquired using a fluorescence microscope (Keyence) 72 hours after a start of thrombin treatment, and a degree of cell death was evaluated using fluorescence intensity of a cortical region as an index (sections of 100 μM NMDA treated for 72 hours were provided for each experiment, and their PI fluorescence intensity was standardized as 100%). Further, an area of a striatal region in each tissue piece was measured from bright field images of cultured tissue pieces acquired before and after the thrombin treatment, and a rate of tissue atrophy due to the thrombin treatment was quantified.

[2] = test system: cerebral cortex-striatal tissue sections; assay: Evaluation using K252a (TrkB inhibitor) of the cytoprotective effect against thrombin; assay type: cell-based, Wistar/ST rat; settings: thrombin + K252a (3 μM)
Experimental: as §1, with “quantified. […]” for “quantified.”

cerebral hemorrhage = assay: Effect on cerebral hemorrhage pathology (collagenase injection into striatum); assay type: in vivo, ICR mouse
Experimental: A male ICR mouse aged 8 to 10 weeks was placed in a brain stereotaxic apparatus under triple anesthesia, and bleeding was induced by injecting 0.035 U of collagenase type VII (Sigma) into a fixed coordinate (2.3 mm lateral to a median, 0.2 mm posterior to a bregma suture, 3.5 mm below a skull) in the striatum over 2.5 minutes using a 30 gauge needle. After that, the surface of the skull was reduced with dental cement, and breeding was continued. The peretinoin 3 (40 mg/kg) was suspended in water together with 0.5% carboxymethyl cellulose, and administered intragastrically using an oral sonde three times in total 3, 27, and 51 hours after the bleeding induction. Note that for comparison, 0.5% carboxymethyl cellulose without the peretinoin 3 was also administered intragastrically in a similar manner. A degree of motor dysfunction in the mouse was evaluated by performing two types of motor function tests (beam walking test, modified limb-placing test) 6, 24, 48, and 72 hours after the bleeding induction. Further, after completion of the motor function test 72 hours later, the mouse was perfused and fixed under anesthesia, and the brain was extracted to prepare a frozen coronary section having a thickness of 16 μm. The effects of the peretinoin 3 were evaluated by identifying microglia, astrocytes, and neurons in the brain tissue, respectively, through immunohistochemistry using antibodies against Iba1, GFAP, and NeuN, and quantifying the number of cells in a given area or an immune reaction positive area.

NT2 cells = assay: Differentiation induction from stem cells to nerve cells; assay type: cell-based, human; settings: peretinoin 3 10 μM, ATRA 1 μM or 10 μM
Experimental: NTERA-2 cl.D1 [NT2/D1] cells (ATCC CRL-1973) (hereinafter described as “NT2 cells”) derived from human pluripotent embryonic cancer were adhesion cultured in a maintenance culture medium (high glucose D-MEM (Sigma-Aldrich, D6429), 10% FBS, 100 U/ml penicillin/streptomycin) under conditions of 37° C. and 5% CO2 for 3 to 4 days on a 10 cm plastic dish until becoming confluent. The NT2 cells were exfoliated by Accutase (Innovative Cell Technologies, #AT104), passaged, and maintenance cultured for 50 days. The medium was changed three times a week. The maintenance cultured NT2 cells were dispersed in a petri dish for low-attached microorganisms (STAR SDish9015, RIKEN) at a concentration of 1.5×10^6 to 2.5×10^6/dish, and suspension cultured on a vibrator (100 rpm) under conditions of 37° C. and 5% CO2, and after one day, 1 μM or 10 μM ATRA was added to induce differentiation and form spheroids. After 14 days, the spheroids were recovered, seeded on a 10 cm dish coated with 5 μg/ml poly-D-lysine (PDL) (Sigma-Aldrich)/laminin (LAM) (iMatrix-511, Nippi), and adhesion cultured under conditions of 37° C. and 5% CO2. […]

[3] = test system: NMDA-type glutamate receptors; assay: Calcium imaging of reactivity to NMDA in differentiated cells; assay type: cell-based, human; settings: NT2-N cells, Fluo-8, 100 μM NMDA solution
Experimental: In order to confirm a statement of synaptic receptors in mature cells, a calcium influx via NMDA-type glutamate receptors was measured as follows.
A fluorescent calcium indicator Fluo-8 AM (AAT Bioquest) was dissolved in Mg-free HHBS (Hepes-buffered Hanks' balanced salt solution (1.26 mM CaCl2, 5.33 mM KCl, 0.44 mM KH2PO4, 4.17 mM NaHCO3, 137.93 mM NaCl, 0.34 mM Na2HPO4, 5.56 mM D-glucose, 20 mM HEPES, pH 7.4)) containing 0.1 μM glycine (4 μM, 2 μM, respectively). This solution (1 ml) was loaded into NT2-N cells under conditions of 37° C. and 5% CO2 (2 hours, 30 minutes, respectively), and fluo8 was loaded into the cells. Thereafter, an extracellular fluid was replaced with Mg-free HHBS containing 0.1 μM glycine, and it was used for the following measurement after being left in an incubator (37° C., 5% CO2) of a living cell time-lapse imaging device (BioStation IM-Q, Nikon) for 1 hour or more. For the NT2-N cells placed in the device, 5 to 10 fields of view to be analyzed were manually set, and for each field of view, fluorescence intensity was continuously recorded every 2 seconds for 5 minutes at an excitation wavelength of 480 nm/a fluorescence wavelength of 520 nm. Further, after a certain period of time elapsed from the start of recording, 100 μl of the 100 μM NMDA solution (Mg-free HHBS containing 0.1 μM glycine) prepared above was administered.

[4] = Non Patent Literature 2 and 3; cited from earlier work
[5] = PET pharmacokinetic test of 11C-labeled acyclic retinoids in rats; assay type: in vivo, Sprague-Dawley rats; settings: rat, i.v.
Experimental: (§2) The ^11C-labeled acyclic retinoid 4c and the ^11C-labeled peretinoin 3 synthesized by the methods described above were administered intravenously (i.v.) to Sprague-Dawley rats and cynomolgus monkeys as a PET probe, and PET images were photographed.

[6] = PET pharmacokinetic test of 11C-labeled acyclic retinoids in cynomolgus monkeys; assay type: in vivo; settings: cynomolgus monkey, i.v.
Experimental: as §2

[7] = 40 mg/kg intragastrically, 6, 24, 48, 72 hours after bleeding
[8] = 40 mg/kg intragastrically, brain taken 72 hours after bleeding
[9] = radioactivity in brain for each time
[10] = radioactivity in brain over time

SMILES: CC(C)=CCC/C(C)=C/CC/C(C)=C/C=C/C(C)=C/C(=O)O [peretinoin 3, (2E,4E,6E,10E)-3,7,11,15-tetramethylhexadeca-2,4,6,10,14-pentaenoic acid]
cerebral cortex cell death induced by thrombin (PI fluorescence) [1]: concentration-dependent and significantly suppressed
striatal tissue atrophy induced by thrombin [1]: concentration-dependent and significantly suppressed
inhibitory effect on striatal atrophy in the presence of K252a [2]: not blocked by K252a
protective effect on cerebral cortex cells in the presence of K252a [2]: blocked by K252a
changes in body weight after cerebral hemorrhage (cerebral hemorrhage; 40 mg/kg intragastrically 3, 27, 51 hours after bleeding induction): suppressed weight loss
beam-walking test: fall rate (cerebral hemorrhage; [7]): decrease
beam-walking test: score (cerebral hemorrhage; [7]): increase
beam-walking test: walking width (cerebral hemorrhage; [7]): increase
modified limb-placing test: deficit score (cerebral hemorrhage; [7]): decrease
motor dysfunction (cerebral hemorrhage; 40 mg/kg intragastrically, 24 to 72 hours after bleeding): significantly alleviated
accumulation of activated microglia around a hematoma (Iba1 immunohistochemistry) (cerebral hemorrhage; [8]): significantly suppressed
shedding of nerve cells in the hematoma (NeuN immunohistochemistry) (cerebral hemorrhage; [8]): suppressed
number of cells expressing MAP2 without expressing nestin (differentiation induction into nerve cells) (NT2 cells): increased
expression of NMDA-type glutamate receptors in induced nerve cells (calcium imaging, NMDA) [3]: expressed NMDA-type glutamate receptors

SMILES: CC1(C)CCC(C)(C)c2cc(NC(=O)c3ccc([11C](=O)O)cc3)ccc21 [^11C-labeled Am80]
intracerebral migration when used as a PET probe [4]: no intracerebral migration was observed

SMILES: CC1=C(/C=C/C(C)=C/C=C/C(C)=C/C(=O)O)C(C)(C)CCC1 [ATRA, All-trans-retinoic acid, reference compound]
number of cells expressing MAP2 without expressing nestin (differentiation induction into nerve cells) (NT2 cells): increased
expression of NMDA-type glutamate receptors in induced nerve cells (calcium imaging, NMDA) [3]: expressed NMDA-type glutamate receptors

SMILES: Cc1cc2c(cc1-n1nnc3cc([11C](=O)O)ccc31)C(C)(C)CCC2(C)C [^11C-labeled CBt-PMN]
intracerebral migration when used as a PET probe [4]: higher intracerebral migration than that of ^11C-labeled bexarotene

migration into the brain (PET image) ([5]; PET probe): migrated into a brain
start of migration into the brain after administration [5, 9]: within several minutes
accumulation in the brain compared with the concentration when uniformly distributed throughout the body [5, 10]: 1.3 times
migration into the brain (PET image) ([6]; PET probe): migrated into a brain
start of migration into the brain after administration [6, 9]: within several minutes
accumulation in the brain compared with the concentration when uniformly distributed throughout the body [6, 10]: 3.0 times
SMILES: CC(C)=CCC/C(C)=C/CC/C(C)=C/C=C/C([11CH3])=C/C(=O)O [^11C-labeled peretinoin 3]
